Drawing on ChEMBL document CHEMBL3414533, “Thiophene containing trisubstituted methanes [TRSMs] as identified lead against Mycobacterium tuberculosis” (Eur J Med Chem, 2015), this text covers MIC for one compound.

Experiment [1] concerns Mycobacterium tuberculosis. As to the kind of experiment: Antimycobacterial activity against rifampicin-resistant Mycobacterium tuberculosis by agar dilution method. The format is functional. (In general: Agar dilution tests growth on a series of plates holding different concentrations.)
Experiment [2] has as its system Mycobacterium tuberculosis. Nature of the experiment: Antimycobacterial activity against multidrug-resistant Mycobacterium tuberculosis by agar dilution method. It is filed as functional.

Broadly, the MIC is the lowest concentration that inhibits growth of the organism. The low end stands for inhibition by little substance, the high end for a need for much substance.

Converted amounts (≈) assume the structure as drawn.

For the compound `COc1ccc(C(c2ccc(OCCN(C(C)C)C(C)C)cc2)c2cccs2)cc1` (configuration not stated), the MIC in experiment [1] and in experiment [2] was 6.25 µM (≈ 2.65 µg/mL) throughout.
